Measured values as given in patent EP2768830B1, “APOPTOSIS-INDUCING AGENTS FOR THE TREATMENT OF CANCER AND IMMUNE AND AUTOIMMUNE DISEASES” (AbbVie Inc., priority 2011, dated 2013).
Like-named read-outs stand apart in the source and are kept apart here.

Columns and labels:
[1] = test system: mouse FL5.12 cells transfected with Bcl-XL; assay: FL5.12 cellular assay (cell viability, CellTiter-Glo); format: cell-based; conditions: FL5.12 cells transfected with Bcl-XL, IL-3-depleted, 3% FBS assay media, 24 hours, CellTiter-Glo, read-out: FL5.12 Bcl-xL, - IL3, EC 50;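 also: each EC50 determination derived from duplicate measurements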
Experimental: For assaying the compound activity, the cells were exchanged into an IL-3-depleted deprivation media, which was identical to the growth media except for the absence of FBS and WEHI-3B conditional media, for 2 days. Then the cells were exchanged to 3% FBS assay media (RPMI with 2 mM glutamine, 1% 100 mM sodium pyruvate, 2% 1 M HEPES, 4 µL/L of β-mercaptoethanol, 1% penicillin-streptomycin, 3% FBS). Compounds in series dilutions were added, and the cells were cultured for 24 hours. Compounds in series dilutions were added, and the cells were cultured for 24 hours. Cell viability was assayed using the CellTiter-Glo assay (Promega Corp., Madison, WI) according to the manufacturer instructions. Individual determinations were the result of duplicate values.

[2] = target: GST-Bcl-xL (Homo sapiens, UniProt Q07817); conditions: read-out: TR-FRET binding Bcl-xL Ki
Chain of GST-Bcl-xL (Q07817 whole entry): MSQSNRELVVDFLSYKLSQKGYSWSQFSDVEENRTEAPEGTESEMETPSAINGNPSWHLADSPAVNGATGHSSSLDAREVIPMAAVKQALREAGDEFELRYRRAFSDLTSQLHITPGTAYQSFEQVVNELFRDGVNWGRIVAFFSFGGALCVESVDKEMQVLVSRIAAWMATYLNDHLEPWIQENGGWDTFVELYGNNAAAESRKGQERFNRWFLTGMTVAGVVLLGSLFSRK

O=C(Nc1nc2ccccc2s1)c1cccc2c1CN(c1ccc(-c3cnn(Cc4ccccc4S(=O)(=O)N4CCOCC4)c3)c(C(=O)O)n1)CC2 [Example 72, 6-[8-(1,3-benzothiazol-2-ylcarbamoyl)-3,4-dihydroisoquinolin-2(1H)-yl]-3-{1-[2-(morpholin-4-ylsulfonyl)benzyl]-1H-pyrazol-4-yl}pyridine-2-carboxylic acid]
EC50 ([1]; Mus musculus): > 1000 nM | Ki [2]: 28 nM

CN(C)CCOc1cccc(Cn2cc(-c3ccc(N4CCc5cccc(C(=O)Nc6nc7ccccc7s6)c5C4)nc3C(=O)O)cn2)c1 [Example 18, 6-[8-(1,3-benzothiazol-2-ylcarbamoyl)-3,4-dihydroisoquinolin-2(1H)-yl]-3-(1-{3-[2-(dimethylamino)ethoxy]benzyl}-1H-pyrazol-4-yl)pyridine-2-carboxylic acid]
EC50 ([1]; Mus musculus): 621 nM | Ki [2]: 38 nM

O=C(Nc1nc2ccccc2s1)c1cccc2c1CN(c1ccc(-c3cn(Cc4ccccc4)c4ncccc34)c(C(=O)O)n1)CC2 [Example 141, 6-[8-(1,3-benzothiazol-2-ylcarbamoyl)-3,4-dihydroisoquinolin-2(1H)-yl]-3-(1-benzyl-1H-pyrrolo[2,3-b]pyridin-3-yl)pyridine-2-carboxylic acid]
EC50 ([1]; Mus musculus): 433 nM | Ki [2]: 1 nM

O=C(Nc1nc2ccccc2s1)c1cccc2c1CN(c1ccc(-c3cccc(Cc4ccccc4)c3)c(C(=O)O)n1)CC2 [Example 106, 6-[8-(1,3-benzothiazol-2-ylcarbamoyl)-3,4-dihydroisoquinolin-2(1H)-yl]-3-(3-benzylphenyl)pyridine-2-carboxylic acid]
EC50 ([1]; Mus musculus): 234 nM | Ki [2]: 0.1 nM

Cc1cc(Oc2ccccc2)ccc1-c1ccc(N2CCc3cccc(C(=O)Nc4nc5ccccc5s4)c3C2)nc1C(=O)O [Example 111, 6-[8-(1,3-benzothiazol-2-ylcarbamoyl)-3,4-dihydroisoquinolin-2(1H)-yl]-3-(2-methyl-4-phenoxyphenyl)pyridine-2-carboxylic acid]
EC50 ([1]; Mus musculus): > 1000 nM | Ki [2]: 21 nM

O=C(Nc1nc2ccccc2s1)c1cccc2c1CN(c1ccc(-c3ccnc(Oc4ccccc4)c3)c(C(=O)O)n1)CC2 [Example 140, 6-[8-(1,3-benzothiazol-2-ylcarbamoyl)-3,4-dihydroisoquinolin-2(1H)-yl]-2'-phenoxy-3,4'-bipyridine-2-carboxylic acid]
EC50 ([1]; Mus musculus): > 1000 nM | Ki [2]: 2.3 nM

COCCOC1(Cn2ncc(-c3ccc(N4CCc5cccc(C(=O)Nc6nc7ccccc7s6)c5C4)nc3C(=O)O)c2C)CCCCC1 [Example 101, 6-[8-(1,3-benzothiazol-2-ylcarbamoyl)-3,4-dihydroisoquinolin-2(1H)-yl]-3-(1-{[1-(2-methoxyethoxy)cyclohexyl]methyl}-5-methyl-1H-pyrazol-4-yl)pyridine-2-carboxylic acid]
EC50 ([1]; Mus musculus): < 1 nM | Ki [2]: 0.4 nM

O=C(Nc1nc2ccccc2s1)c1cccc2c1CN(c1ccc(-c3cnn(CCC4CCCCC4)c3)c(C(=O)O)n1)CC2 [Example 60, 6-[8-(1,3-benzothiazol-2-ylcarbamoyl)-3,4-dihydroisoquinolin-2(1H)-yl]-3-[1-(2-cyclohexylethyl)-1H-pyrazol-4-yl]pyridine-2-carboxylic acid]
EC50 ([1]; Mus musculus): 219 nM | Ki [2]: 5 nM

Cc1c(OC2CCCCC2)cccc1-c1ccc(N2CCc3cccc(C(=O)Nc4nc5ccccc5s4)c3C2)nc1C(=O)O [Example 114, 6-[8-(1,3-benzothiazol-2-ylcarbamoyl)-3,4-dihydroisoquinolin-2(1H)-yl]-3-[3-(cyclohexyloxy)-2-methylphenyl]pyridine-2-carboxylic acid]
EC50 ([1]; Mus musculus): 220 nM | Ki [2]: 0.2 nM

Cc1c(-c2ccc(N3CCc4cccc(C(=O)Nc5nc6ccccc6s5)c4C3)nc2C(=O)O)cc(C#N)n1CC1(N2CCOCC2)CCCCC1 [Example 168, 6-[8-(1,3-benzothiazol-2-ylcarbamoyl)-3,4-dihydroisoquinolin-2(1H)-yl]-3-(5-cyano-2-methyl-1-{[1-(morpholin-4-yl)cyclohexyl]methyl}-1H-pyrrol-3-yl)pyridine-2-carboxylic acid]
EC50 ([1]; Mus musculus): 14 nM | Ki [2]: < 0.1 nM

CN(C)Cc1cccc(Cn2cc(-c3ccc(N4CCc5cccc(C(=O)Nc6nc7ccccc7s6)c5C4)nc3C(=O)O)cn2)c1 [Example 68, 6-[8-(1,3-benzothiazol-2-ylcarbamoyl)-3,4-dihydroisoquinolin-2(1H)-yl]-3-(1-{3-[(dimethylamino)methyl]benzyl}-1H-pyrazol-4-yl)pyridine-2-carboxylic acid]
EC50 ([1]; Mus musculus): > 1000 nM | Ki [2]: 279 nM

COCCC1(Cn2ncc(-c3ccc(N4CCc5cccc(C(=O)Nc6nc7ccccc7s6)c5C4)nc3C(=O)O)c2C)CCCC(C)(C)C1 (stereo not drawn) [Example 146, 6-[8-(1,3-benzothiazol-2-ylcarbamoyl)-3,4-dihydroisoquinolin-2(1H)-yl]-3-(1-{[1-(2-methoxyethyl)-3,3-dimethylcyclohexyl]methyl}-5-methyl-1H-pyrazol-4-yl)pyridine-2-carboxylic acid]
EC50 ([1]; Mus musculus): 11 nM | Ki [2]: < 0.1 nM

Cc1nn(Cc2ccccc2)c(C)c1-c1ccc(N2CCc3cccc(C(=O)Nc4nc5ccccc5s4)c3C2)nc1C(=O)O [Example 12, 6-[8-(1,3-benzothiazol-2-ylcarbamoyl)-3,4-dihydroisoquinolin-2(1H)-yl]-3-(1-benzyl-3,5-dimethyl-1H-pyrazol-4-yl)pyridine-2-carboxylic acid]
EC50 ([1]; Mus musculus): 51 nM | Ki [2]: 8 nM

COCCC(C1CCCCC1)n1ncc(-c2ccc(N3CCc4cccc(C(=O)Nc5nc6ccccc6s5)c4C3)nc2C(=O)O)c1C (stereo not drawn) [Example 184, 6-[8-(1,3-benzothiazol-2-ylcarbamoyl)-3,4-dihydroisoquinolin-2(1H)-yl]-3-[1-(1-cyclohexyl-3-methoxypropyl)-5-methyl-1H-pyrazol-4-yl]pyridine-2-carboxylic acid]
EC50 ([1]; Mus musculus): 2 nM | Ki [2]: < 0.1 nM

O=C(Nc1nc2ccccc2s1)c1cccc2c1CN(c1ccc(-c3cnn(Cc4ccccc4-c4ccccc4)c3)c(C(=O)O)n1)CC2 [Example 62, 6-[8-(1,3-benzothiazol-2-ylcarbamoyl)-3,4-dihydroisoquinolin-2(1H)-yl]-3-[1-(biphenyl-2-ylmethyl)-1H-pyrazol-4-yl]pyridine-2-carboxylic acid]
EC50 ([1]; Mus musculus): > 1000 nM | Ki [2]: 61 nM

COCCCC1(Cn2ncc(-c3ccc(N4CCc5cccc(C(=O)Nc6nc7ccccc7s6)c5C4)nc3C(=O)O)c2C)CCCCC1 [Example 97, 6-[8-(1,3-benzothiazol-2-ylcarbamoyl)-3,4-dihydroisoquinolin-2(1H)-yl]-3-(1-{[1-(3-methoxypropyl)cyclohexyl]methyl}-5-methyl-1H-pyrazol-4-yl)pyridine-2-carboxylic acid]
EC50 [1]: < 1 nM | Ki [2]: 2 nM

O=C(Nc1nc2ccccc2s1)c1cccc2c1CN(c1ccc(-c3cnn(CC4CCCOC4)c3)c(C(=O)O)n1)CC2 (stereo not drawn) [Example 56, 6-[8-(1,3-benzothiazol-2-ylcarbamoyl)-3,4-dihydroisoquinolin-2(1H)-yl]-3-[1-(tetrahydro-2H-pyran-3-ylmethyl)-1H-pyrazol-4-yl]pyridine-2-carboxylic acid]
EC50 ([1]; Mus musculus): 583 nM | Ki [2]: 24 nM

O=C(Nc1nc2ccccc2s1)c1cccc2c1CN(c1ccc(-c3cnn(Cc4cccnc4)c3)c(C(=O)O)n1)CC2 [Example 3, 6-[8-(1,3-benzothiazol-2-ylcarbamoyl)-3,4-dihydroisoquinolin-2(1H)-yl]-3-[1-(pyridin-3-ylmethyl)-1H-pyrazol-4-yl]pyridine-2-carboxylic acid]
EC50 [1]: > 1000 nM | Ki [2]: 258 nM

COC1(Cn2nnc(-c3ccc(N4CCc5cccc(C(=O)Nc6nc7ccccc7s6)c5C4)nc3C(=O)O)c2C)CCCC(C)(C)C1 (stereo not drawn) [Example 166, 6-[8-(1,3-benzothiazol-2-ylcarbamoyl)-3,4-dihydroisoquinolin-2(1H)-yl]-3-{1-[(1-methoxy-3,3-dimethylcyclohexyl)methyl]-5-methyl-1H-1,2,3-triazol-4-yl}pyridine-2-carboxylic acid]
EC50 ([1]; Mus musculus): 30 nM | Ki [2]: < 0.1 nM

O=C(Nc1nc2ccccc2s1)c1cccc2c1CN(c1ccc(-c3cnn(Cc4ccccc4[N+](=O)[O-])c3)c(C(=O)O)n1)CC2 [Example 57, 6-[8-(1,3-benzothiazol-2-ylcarbamoyl)-3,4-dihydroisoquinolin-2(1H)-yl]-3-[1-(2-nitrobenzyl)-1H-pyrazol-4-yl]pyridine-2-carboxylic acid]
EC50 ([1]; Mus musculus): 741 nM | Ki [2]: 14 nM

O=C(Nc1nc2ccccc2s1)c1cccc2c1CN(c1ccc(-c3cnn(Cc4ccccc4N4CCOCC4)c3)c(C(=O)O)n1)CC2 [Example 76, 6-[8-(1,3-benzothiazol-2-ylcarbamoyl)-3,4-dihydroisoquinolin-2(1H)-yl]-3-{1-[2-(morpholin-4-yl)benzyl]-1H-pyrazol-4-yl}pyridine-2-carboxylic acid]
EC50 ([1]; Mus musculus): > 1000 nM | Ki [2]: 29 nM

Cc1c(-c2ccc(N3CCc4cccc(C(=O)Nc5nc6ccccc6s5)c4C3)nc2C(=O)O)cnn1Cc1ccccc1OCCCN1CCOCC1 [Example 81, 6-[8-(1,3-benzothiazol-2-ylcarbamoyl)-3,4-dihydroisoquinolin-2(1H)-yl]-3-(5-methyl-1-{2-[3-(morpholin-4-yl)propoxy]benzyl}-1H-pyrazol-4-yl)pyridine-2-carboxylic acid]
EC50 ([1]; Mus musculus): 37 nM | Ki [2]: 0.6 nM

O=C(Nc1nc2ccccc2s1)c1cccc2c1CN(c1ccc(-c3cnn(Cc4cc(F)cc(F)c4)c3)c(C(=O)O)n1)CC2 [Example 53, 6-[8-(1,3-benzothiazol-2-ylcarbamoyl)-3,4-dihydroisoquinolin-2(1H)-yl]-3-[1-(3,5-difluorobenzyl)-1H-pyrazol-4-yl]pyridine-2-carboxylic acid]
EC50 [1]: 387 nM | Ki [2]: 14 nM

Cc1c(-c2ccc(N3CCc4cccc(C(=O)Nc5nc6ccccc6s5)c4C3)nc2C(=O)O)cc(C(=O)O)n1Cc1ccccc1 [Example 124, 6-[8-(1,3-benzothiazol-2-ylcarbamoyl)-3,4-dihydroisoquinolin-2(1H)-yl]-3-(1-benzyl-5-carboxy-2-methyl-1H-pyrrol-3-yl)pyridine-2-carboxylic acid]
EC50 ([1]; Mus musculus): 57 nM | Ki [2]: < 0.1 nM
